These are literature values, as cited in patent US20220117956A1, “LSD FOR THE TREATMENT OF ALZHEIMER'S DISEASE” (Eleusis Therapeutics US, Inc., priority 2015, published 2022).

For data set [1] the following is noted: formulated for immediate release; depending on dosage, tolerance, body weight and age.
The conditions of data set [2]: immediate release LSD dosed at 1 μg/kg.

With `CCN(CC)C(=O)[C@@H]1C=C2c3cccc4[nH]cc(c34)C[C@H]2N(C)C1` [LSD, lysergic acid diethylamide], the “duration of LSD's effects” value in data set [1] was 6 to 12 h. In addition, in data set [2], the apparent plasma half-life was 5.1 h and the “time of peak plasma concentration post-dose” value is 3 h. For the same molecule, the peak plasma concentration in data set [2] (at 3 hours post-dose) is 5 ng/mL.
